Assay results from publication PMC5218480 (PLoS ONE, 2017).

Test system: MV-4-11 cells
Assay: Gene expression microarray analysis (Affymetrix PrimeView) and GSEA
Format: cell-based, human
Parameters: RFU PODN (11730768_x_at) / Fold change /veh PODN (11730768_x_at) / RFU LINC00158 (11744669_a_at) / Fold change /veh LINC00158 (11744669_a_at) / RFU DUSP10 (11751237_a_at) / Fold change /veh DUSP10 (11751237_a_at) / RFU ID3 (11757404_x_at) / Fold change /veh ID3 (11757404_x_at) / RFU PLEKHG5 (11737974_s_at) / Fold change /veh PLEKHG5 (11737974_s_at) / RFU LRRC4B (11730491_at) / Fold change /veh LRRC4B (11730491_at) / RFU GIMAP4 (11747438_a_at) / Fold change /veh GIMAP4 (11747438_a_at) / RFU KRT8 (11758183_x_at) / Fold change /veh KRT8 (11758183_x_at) / RFU CNN1 (11734310_a_at) / Fold change /veh CNN1 (11734310_a_at) / RFU VPS37D (11726825_at) / Fold change /veh VPS37D (11726825_at) / RFU C10orf10 (11716522_x_at) / Fold change /veh C10orf10 (11716522_x_at) / RFU KIR2DL2 /// KIR2DL4 /// KIR2DL5A /// KIR2DL5B /// KIR2DS1 /// KIR2DS2 /// KIR2DS3 /// KIR2DS4 /// KIR3DL3 /// KIR3DL3 /// KIR3DS1 (11738374_at) / Fold change /veh KIR2DL2 /// KIR2DL4 /// KIR2DL5A /// KIR2DL5B /// KIR2DS1 /// KIR2DS2 /// KIR2DS3 /// KIR2DS4 /// KIR3DL3 /// KIR3DL3 /// KIR3DS1 (11738374_at) / RFU C1QL1 (11718748_at) / Fold change /veh C1QL1 (11718748_at) / RFU TMPRSS4 (11747572_a_at) / Fold change /veh TMPRSS4 (11747572_a_at) / RFU HAMP (11756126_x_at) / Fold change /veh HAMP (11756126_x_at) / RFU RNFT2 (11725882_a_at) / Fold change /veh RNFT2 (11725882_a_at) / RFU NR4A2 (11747474_a_at) / Fold change /veh NR4A2 (11747474_a_at) / RFU ABCC12 (11746883_a_at) / Fold change /veh ABCC12 (11746883_a_at) / RFU TMEM136 (11760407_x_at) / Fold change /veh TMEM136 (11760407_x_at) / RFU CLDN22 /// WWC2 (11732394_at) / Fold change /veh CLDN22 /// WWC2 (11732394_at) / RFU HLA-DPB1 (11760878_x_at) / Fold change /veh HLA-DPB1 (11760878_x_at) / RFU SPINT1 (11716480_a_at) / Fold change /veh SPINT1 (11716480_a_at) / RFU GAP43 (11754022_s_at) / Fold change /veh GAP43 (11754022_s_at) / RFU A4GNT (11735810_at) / Fold change /veh A4GNT (11735810_at) / RFU PRB3 (11715151_x_at) / Fold change /veh PRB3 (11715151_x_at) / RFU TUBB4B (11761932_at) / Fold change /veh TUBB4B (11761932_at) / RFU CAPN14 (11732068_a_at) / Fold change /veh CAPN14 (11732068_a_at) / RFU TMCC2 (11721928_a_at) / Fold change /veh TMCC2 (11721928_a_at) / RFU IRGQ (11745062_a_at) / Fold change /veh IRGQ (11745062_a_at) / RFU FAM174B (11720279_a_at) / Fold change /veh FAM174B (11720279_a_at) / RFU TMPRSS4 (11748680_a_at) / Fold change /veh TMPRSS4 (11748680_a_at) / RFU FAM212B (11763350_a_at) / Fold change /veh FAM212B (11763350_a_at) / RFU PLEKHG5 (11743358_a_at) / Fold change /veh PLEKHG5 (11743358_a_at) / RFU ZSCAN30 (11745921_a_at) / Fold change /veh ZSCAN30 (11745921_a_at) / RFU CMKLR1 (11741424_a_at) / Fold change /veh CMKLR1 (11741424_a_at) / RFU LOC101060620 /// MAPK8IP1 (11723275_at) / Fold change /veh LOC101060620 /// MAPK8IP1 (11723275_at) / RFU SPTSSB (11747773_x_at) / Fold change /veh SPTSSB (11747773_x_at) / RFU PRSS12 (11739890_at) / Fold change /veh PRSS12 (11739890_at) / RFU BIN1 (11741810_x_at) / Fold change /veh BIN1 (11741810_x_at) / RFU WNT11 (11732464_a_at) / Fold change /veh WNT11 (11732464_a_at) / RFU C10orf10 (11716521_a_at) / Fold change /veh C10orf10 (11716521_a_at) / RFU C5orf56 (11738089_at) / Fold change /veh C5orf56 (11738089_at) / RFU CYB561 (11721691_x_at) / Fold change /veh CYB561 (11721691_x_at) / RFU ANKRD19P (11752326_a_at) / Fold change /veh ANKRD19P (11752326_a_at) / RFU OR2T12 /// OR2T33 /// OR2T8 (11738714_s_at) / Fold change /veh OR2T12 /// OR2T33 /// OR2T8 (11738714_s_at) / RFU VCAN (11748164_a_at) / Fold change /veh VCAN (11748164_a_at) / RFU JSRP1 (11732532_at) / Fold change /veh JSRP1 (11732532_at) / RFU KRTAP10-11 (11738290_x_at) / Fold change /veh KRTAP10-11 (11738290_x_at) / RFU MYO3A (11730013_a_at) / Fold change /veh MYO3A (11730013_a_at) / RFU EBF3 (11725865_a_at) / Fold change /veh EBF3 (11725865_a_at) / RFU CAMK2N1 (11719241_x_at) / Fold change /veh CAMK2N1 (11719241_x_at) / RFU C5orf56 (11738088_a_at) / Fold change /veh C5orf56 (11738088_a_at) / RFU OLFML3 (11715873_a_at) / Fold change /veh OLFML3 (11715873_a_at) / RFU LOC100653217 /// NTM (11731650_a_at) / Fold change /veh LOC100653217 /// NTM (11731650_a_at) / RFU MAPK11 (11762145_a_at) / Fold change /veh MAPK11 (11762145_a_at) / RFU FIZ1 (11724087_x_at) / Fold change /veh FIZ1 (11724087_x_at) / RFU OASL (11726364_x_at) / Fold change /veh OASL (11726364_x_at) / RFU SOX15 (11748057_x_at) / Fold change /veh SOX15 (11748057_x_at) / RFU CD79A (11719716_a_at) / Fold change /veh CD79A (11719716_a_at) / RFU HIST1H1D (11736915_at) / Fold change /veh HIST1H1D (11736915_at) / RFU CASKIN2 (11723855_a_at) / Fold change /veh CASKIN2 (11723855_a_at) / RFU LOC730098 (11760151_x_at) / Fold change /veh LOC730098 (11760151_x_at) / RFU OR4N2 (11742367_at) / Fold change /veh OR4N2 (11742367_at) / RFU PRRT2 (11749266_a_at) / Fold change /veh PRRT2 (11749266_a_at) / RFU SNX32 (11753110_a_at) / Fold change /veh SNX32 (11753110_a_at) / RFU CDHR5 (11726645_a_at) / Fold change /veh CDHR5 (11726645_a_at) / RFU RCAN1 (11760418_a_at) / Fold change /veh RCAN1 (11760418_a_at) / RFU FAM167A (11723789_a_at) / Fold change /veh FAM167A (11723789_a_at) / RFU FAM26E (11764081_at) / Fold change /veh FAM26E (11764081_at) / RFU ISYNA1 (11749810_s_at) / Fold change /veh ISYNA1 (11749810_s_at) / RFU ACY1 (11761880_at) / Fold change /veh ACY1 (11761880_at) / RFU 11764098_at / Fold change /veh 11764098_at / RFU SAMD14 (11745864_x_at) / Fold change /veh SAMD14 (11745864_x_at) / RFU NPB (11741838_a_at) / Fold change /veh NPB (11741838_a_at) / RFU TMPRSS6 (11731388_a_at) / Fold change /veh TMPRSS6 (11731388_a_at) / RFU KRTAP10-2 (11738614_at) / Fold change /veh KRTAP10-2 (11738614_at) / RFU ARHGAP8 /// PRR5-ARHGAP8 (11727945_x_at) / Fold change /veh ARHGAP8 /// PRR5-ARHGAP8 (11727945_x_at) / RFU KRTAP5-7 /// NADSYN1 (11734609_at) / Fold change /veh KRTAP5-7 /// NADSYN1 (11734609_at) / RFU RASL12 (11751679_a_at) / Fold change /veh RASL12 (11751679_a_at) / RFU CDKN2B (11736163_a_at) / Fold change /veh CDKN2B (11736163_a_at) / RFU PRF1 (11729649_at) / Fold change /veh PRF1 (11729649_at) / RFU, ZNF638 /// ZNF638-IT1 / Fold change vs veh, ZNF638 /// ZNF638-IT1 / RFU, PANK3 / Fold change vs veh, PANK3 / RFU, SH3YL1 / Fold change vs veh, SH3YL1 / RFU, ZEB2 / Fold change vs veh, ZEB2 / RFU, NRIP1 / Fold change vs veh, NRIP1 / RFU, PTTG1IP / Fold change vs veh, PTTG1IP / RFU, CAPN2 / Fold change vs veh, CAPN2 / RFU, MED14 / Fold change vs veh, MED14 / RFU, SNORA58 / Fold change vs veh, SNORA58 / RFU, C1orf63 / Fold change vs veh, C1orf63 / RFU, LRRFIP1 / Fold change vs veh, LRRFIP1 / RFU, NDUFAF7 / Fold change vs veh, NDUFAF7 / RFU, SLC12A2 / Fold change vs veh, SLC12A2 / RFU, IBTK / Fold change vs veh, IBTK / RFU, ESF1 / Fold change vs veh, ESF1 / Fold change vs veh, TMEM50B / RFU, TAOK1 / Fold change vs veh, TAOK1 / RFU, ACBD3 / Fold change vs veh, ACBD3 / RFU, TMA16 / Fold change vs veh, TMA16 / RFU, RWDD3 / Fold change vs veh, RWDD3 / RFU, BCAT1 / Fold change vs veh, BCAT1 / RFU, EDEM3 / Fold change vs veh, EDEM3 / RFU, TMEM33 / Fold change vs veh, TMEM33 / RFU, WDR75 / Fold change vs veh, WDR75 / RFU, AHCTF1 / Fold change vs veh, AHCTF1 / RFU, TFRC / Fold change vs veh, TFRC / RFU, ZDHHC17 / Fold change vs veh, ZDHHC17 / RFU, NOM1 / Fold change vs veh, NOM1 / RFU, ARL8B / Fold change vs veh, ARL8B / RFU, ZBTB11 / Fold change vs veh, ZBTB11 / RFU, TAMM41 / Fold change vs veh, TAMM41 / RFU, KIAA1704 /// LOC100996395 / Fold change vs veh, KIAA1704 /// LOC100996395 / RFU, ING1 / Fold change vs veh, ING1 / RFU, TRMT61B / Fold change vs veh, TRMT61B / RFU, FUBP3 / Fold change vs veh, FUBP3 / RFU, TP53 / Fold change vs veh, TP53 / RFU, TNKS2 / Fold change vs veh, TNKS2 / RFU, ZFP14 / Fold change vs veh, ZFP14 / RFU, ACTR2 / Fold change vs veh, ACTR2 / RFU, PPP3R1 / Fold change vs veh, PPP3R1 / RFU, PIK3R1 / Fold change vs veh, PIK3R1 / RFU, HNRNPA1 / Fold change vs veh, HNRNPA1 / RFU, RNF170 / Fold change vs veh, RNF170 / RFU, ZNF28 / Fold change vs veh, ZNF28 / RFU, RNGTT / Fold change vs veh, RNGTT / RFU, OGT / Fold change vs veh, OGT / RFU, BRD1 / Fold change vs veh, BRD1 / RFU, MARS / Fold change vs veh, MARS / RFU, ZNF655 / Fold change vs veh, ZNF655 / RFU, FAHD1 / Fold change vs veh, FAHD1 / RFU, BDP1 / Fold change vs veh, BDP1 / RFU, LRRCC1 / Fold change vs veh, LRRCC1 / RFU, ARID1A / Fold change vs veh, ARID1A / RFU, ZNF146 / Fold change vs veh, ZNF146 / RFU, ZNF330 / Fold change vs veh, ZNF330 / RFU, GPN3 / Fold change vs veh, GPN3 / RFU, C9orf123 / Fold change vs veh, C9orf123 / RFU, N4BP2L2 / Fold change vs veh, N4BP2L2 / RFU, ARFIP1 / Fold change vs veh, ARFIP1 / RFU, FAM179B / Fold change vs veh, FAM179B / RFU, BCL10 / Fold change vs veh, BCL10 / RFU, UHRF1BP1L / Fold change vs veh, UHRF1BP1L / RFU, BET1 / Fold change vs veh, BET1 / RFU, CNOT2 / Fold change vs veh, CNOT2 / RFU, ZNF268 / Fold change vs veh, ZNF268 / Fold change vs veh, ZNF507 / RFU, DGCR2 / Fold change vs veh, DGCR2 / RFU, WDSUB1 / Fold change vs veh, WDSUB1 / Fold change vs veh, HSP90B1 /// MIR3652 / RFU, ADSS / Fold change vs veh, ADSS / RFU, GK / Fold change vs veh, GK / RFU, ZNF148 / Fold change vs veh, ZNF148 / RFU, TAF9 / Fold change vs veh, TAF9 / RFU, SLC1A5 / Fold change vs veh, SLC1A5 / RFU, SLMO2 / Fold change vs veh, SLMO2 / RFU, ABCC4 / Fold change vs veh, ABCC4 / RFU, LOC101060439 /// RAP1B / Fold change vs veh, LOC101060439 /// RAP1B / RFU, RFX7 / Fold change vs veh, RFX7 / RFU, GTPBP10 / Fold change vs veh, GTPBP10 / RFU, CNEP1R1 / Fold change vs veh, CNEP1R1 / RFU, BIVM-ERCC5 /// ERCC5 / Fold change vs veh, BIVM-ERCC5 /// ERCC5 / RFU, ILF3 / Fold change vs veh, ILF3 / RFU 11762660_at / Fold change /veh 11762660_at / RFU VCAN (11757783_s_at) / Fold change /veh VCAN (11757783_s_at) / RFU DDX43 (11728927_at) / Fold change /veh DDX43 (11728927_at) / RFU KRT8 (11758188_x_at) / Fold change /veh KRT8 (11758188_x_at) / RFU NKD1 (11759106_at) / Fold change /veh NKD1 (11759106_at) / RFU SRD5A1 (11742802_a_at) / Fold change /veh SRD5A1 (11742802_a_at) / RFU TPSAB1 /// TPSB2 (11721975_s_at) / Fold change /veh TPSAB1 /// TPSB2 (11721975_s_at) / RFU GSTM3 (11746129_a_at) / Fold change /veh GSTM3 (11746129_a_at) / RFU IL23R (11737362_x_at) / Fold change /veh IL23R (11737362_x_at) / RFU TMEM51 (11727254_a_at) / Fold change /veh TMEM51 (11727254_a_at) / RFU PIWIL2 (11732686_x_at) / Fold change /veh PIWIL2 (11732686_x_at) / RFU ORM1 (11744905_x_at) / Fold change /veh ORM1 (11744905_x_at) / RFU CCDC152 (11743942_at) / Fold change /veh CCDC152 (11743942_at) / RFU ECM1 (11717891_a_at) / Fold change /veh ECM1 (11717891_a_at) / RFU IL23R (11748794_a_at) / Fold change /veh IL23R (11748794_a_at) / RFU TNFAIP8L3 (11732012_x_at) / Fold change /veh TNFAIP8L3 (11732012_x_at) / RFU MBOAT4 (11741988_at) / Fold change /veh MBOAT4 (11741988_at) / RFU 11764193_at / Fold change /veh 11764193_at / RFU TMEM53 (11763286_at) / Fold change /veh TMEM53 (11763286_at) / RFU MAGEB2 (11727129_at) / Fold change /veh MAGEB2 (11727129_at) / RFU TMEM200A (11744735_a_at) / Fold change /veh TMEM200A (11744735_a_at) / RFU CCDC152 (11751479_a_at) / Fold change /veh CCDC152 (11751479_a_at) / RFU FAM211A (11726209_a_at) / Fold change /veh FAM211A (11726209_a_at) / RFU RGS16 (11746705_a_at) / Fold change /veh RGS16 (11746705_a_at) / RFU VCAN (11755009_s_at) / Fold change /veh VCAN (11755009_s_at) / RFU RHOB (11743442_s_at) / Fold change /veh RHOB (11743442_s_at) / RFU RGS16 (11720943_a_at) / Fold change /veh RGS16 (11720943_a_at) / RFU RGS16 (11720944_at) / Fold change /veh RGS16 (11720944_at) / RFU, VPS4B / Fold change vs veh, VPS4B / RFU, CREB1 / Fold change vs veh, CREB1 / RFU, DNAJC13 / Fold change vs veh, DNAJC13 / RFU, GNAQ / Fold change vs veh, GNAQ / RFU, CDK5R1 / Fold change vs veh, CDK5R1 / RFU, ZRANB3 / Fold change vs veh, ZRANB3 / RFU, CUL4A / Fold change vs veh, CUL4A / RFU, CCNY / Fold change vs veh, CCNY / RFU, UFL1 / Fold change vs veh, UFL1 / RFU, COG3 / Fold change vs veh, COG3 / RFU, DIAPH2 / Fold change vs veh, DIAPH2 / RFU, SKA2 / Fold change vs veh, SKA2 / RFU, AFF3 / Fold change vs veh, AFF3 / RFU, LMF1 / Fold change vs veh, LMF1 / RFU, IPO11 / Fold change vs veh, IPO11 / RFU, DFFB / Fold change vs veh, DFFB / RFU, FOXP1 / Fold change vs veh, FOXP1 / RFU, CARD8 / Fold change vs veh, CARD8 / RFU, STRN3 / Fold change vs veh, STRN3 / RFU, ADK / Fold change vs veh, ADK / RFU, RASSF2 / Fold change vs veh, RASSF2 / RFU, WIPF1 / Fold change vs veh, WIPF1 / RFU, LARP1B / Fold change vs veh, LARP1B / RFU, RASA1 / Fold change vs veh, RASA1 / RFU, RB1 / Fold change vs veh, RB1 / RFU, PPFIA1 / Fold change vs veh, PPFIA1 / RFU, MAT2A / Fold change vs veh, MAT2A / RFU, CCT5 / Fold change vs veh, CCT5 / RFU, WDR92 / Fold change vs veh, WDR92 / RFU, CUX1 / Fold change vs veh, CUX1 / RFU, TTC7A / Fold change vs veh, TTC7A / RFU, TMEM135 / Fold change vs veh, TMEM135 / RFU, DEPTOR / Fold change vs veh, DEPTOR / RFU, CPM / Fold change vs veh, CPM / RFU, DNAJB6 / Fold change vs veh, DNAJB6 / RFU, CACNA2D3 / Fold change vs veh, CACNA2D3 / RFU, DTX4 / Fold change vs veh, DTX4 / RFU, TFCP2 / Fold change vs veh, TFCP2 / RFU, GMCL1 /// GMCL1P1 / Fold change vs veh, GMCL1 /// GMCL1P1 / RFU, AEBP2 / Fold change vs veh, AEBP2 / RFU, SNHG1 /// SNORD22 /// SNORD25 /// SNORD26 /// SNORD27 /// SNORD28 /// SNORD29 /// SNORD31 / Fold change vs veh, SNHG1 /// SNORD22 /// SNORD25 /// SNORD26 /// SNORD27 /// SNORD28 /// SNORD29 /// SNORD31 / Fold change (Aza/veh), C12orf56 (ProbeSet 11735607_a_at) / Fold change (ACY-1035/veh), C12orf56 (ProbeSet 11735607_a_at) / Fold change (Aza/veh), FGFR1OP (ProbeSet 11751329_s_at) / Fold change (ACY-1035/veh), FGFR1OP (ProbeSet 11751329_s_at) / Fold change (Aza/veh), VPS36 (ProbeSet 11739960_a_at) / Fold change (ACY-1035/veh), VPS36 (ProbeSet 11739960_a_at) / RFU SYPL1 (11715823_x_at) / Fold change /veh SYPL1 (11715823_x_at) / RFU IGFBP7 (11715501_s_at) / Fold change /veh IGFBP7 (11715501_s_at) / RFU REEP3 (11722064_at) / Fold change /veh REEP3 (11722064_at) / RFU IGLL1 (11728026_x_at) / Fold change /veh IGLL1 (11728026_x_at): dose or concentration left out as unconfirmed
Conditions: ProbeSet 11725787_a_at; LIST B

## Nc1ccc(-c2cccs2)cc1NC(=O)c1ccc2c(c1)cc(C1CC1)n2CCN1CCOCC1 [ACY-1035]
  Fold change vs veh, TMA16: 0.86
